How the values were obtained:
[1] = target: T1, HDAC3 (Homo sapiens, UniProt O15379); experiment: Quantitative LC-MS proteomics of relative protein abundance in treated Kelly cells; type: cell-based; conditions: 1 μM compound, 5 hr, compared to DMSO control
T1 construct: endogenous in cells; host or cells: Kelly cells
Description: Kelly cells were treated with DMSO or 1 μM of compound 2 or 3 for 5 hr and cells were harvested by centrifugation at 4° C. before snap freezing in liquid nitrogen. Cell lysis was performed by the addition of Urea buffer (8 M Urea, 50 mM NaCl, 50 mM 4-(2-hydroxyethyl)-1-piperazineethanesulfonic acid (EPPS) pH 8.5, Protease and Phosphatase inhibitors) followed by manual homogenization by 20 passes through a 21-gauge (1.25 in. long) needle. Lysate was clarified by centrifugation and protein quantified using bradford (Bio-Rad) assay. 50 μg of protein for each sample was reduced, alkylated and precipitated using methanol/chloroform as described in Donovan et al., eLife 7: e38430 (2018). The resulting precipitated protein was resuspended in 4 M Urea, 50 mM HEPES pH 7.4, buffer for solubilization, followed by dilution to 1 M urea with the addition of 200 mM EPPS, pH 8. Proteins were digested for 12 hours at room temperature with LysC (1:50 ratio), followed by dilution to 0.5 M urea and a second digestion step was performed by addition of trypsin (1:50 ratio) for 6 hours at 37° C. […]
The diaPASEF raw file processing and controlling peptide and protein level false discovery rates, assembling proteins from peptides, and protein quantification from peptides was performed using library free analysis in DIA-NN 1.8 (Demichev et al., Nature Methods 17:41-44 (2020)). […]

[2] = target: T2, VHL (Homo sapiens, UniProt P40337); experiment: Cellular VHL engagement assay (BRD4BD2-GFP with mCherry reporter cells); type: cell-based; conditions: cells stably expressing BRD4BD2-GFP with mCherry reporter, co-treated with 250 nM BRD4 degrader, 5 h
T2 construct: Cells stably expressing the BRD4BD2-GFP with mCherry reporter were seeded; endogenous in cells; host or cells: unnamed cells stably expressing the BRD4BD2-GFP with mCherry reporter
Description: Cells stably expressing the BRD4BD2-GFP with mCherry reporter were seeded at a density of 1000-4000 cells/well in 384-well plates with 50 μL per well of FluoroBrite™ DMEM media (Thermo Fisher Scientific™, A18967) supplemented with 2% FBS a day before compound treatment. Compounds 1 and 2, and 250 nM 1 ((2S,4R)-1-(2R)-2-acetamido-3-[[6-[2-[(6S)-4-(4-chlorophenyl)-2,3,9-trimethyl-6H-thieno[3,2-f][1,2,4]triazolo[4,3-a][1,4]diazepin-6-yl]acetamido]hexyl]thio]-3-methylbutanoyl]-4-hydroxy-N-[4-(4-methylthiazol-5-yl)benzyl) pyrrolidinine-2-carboxamide) were dispensed using a D300e Digital Dispenser (HP), normalized to 0.5% DMSO, and incubated with the cells for 5 h. The assay plate was imaged immediately using an Acumen® High Content Imager (TTP Labtech) with 488 nm and 561 nm lasers in a 2 μm×1 μm grid per well format. The resulting images were analyzed using CellProfiler™.
A series of image analysis steps (an ‘image analysis pipeline’) was constructed. […] A background illumination function was calculated for both red and green channels of each well individually and subtracted to correct for illumination variations across the 384-well plate from various sources of error. […] The fraction of GFP-positive cells/mCherry-positive cells in each well was then calculated, and the green and red images were rescaled for visualization. […]

T2 sequence (P40337 whole entry, species assumed): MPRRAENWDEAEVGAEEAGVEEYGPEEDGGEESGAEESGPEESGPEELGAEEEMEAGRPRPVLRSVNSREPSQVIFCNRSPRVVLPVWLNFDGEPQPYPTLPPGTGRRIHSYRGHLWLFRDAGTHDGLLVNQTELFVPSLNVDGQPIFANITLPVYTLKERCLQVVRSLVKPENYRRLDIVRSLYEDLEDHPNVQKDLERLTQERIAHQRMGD
T1 sequence (O15379 whole entry): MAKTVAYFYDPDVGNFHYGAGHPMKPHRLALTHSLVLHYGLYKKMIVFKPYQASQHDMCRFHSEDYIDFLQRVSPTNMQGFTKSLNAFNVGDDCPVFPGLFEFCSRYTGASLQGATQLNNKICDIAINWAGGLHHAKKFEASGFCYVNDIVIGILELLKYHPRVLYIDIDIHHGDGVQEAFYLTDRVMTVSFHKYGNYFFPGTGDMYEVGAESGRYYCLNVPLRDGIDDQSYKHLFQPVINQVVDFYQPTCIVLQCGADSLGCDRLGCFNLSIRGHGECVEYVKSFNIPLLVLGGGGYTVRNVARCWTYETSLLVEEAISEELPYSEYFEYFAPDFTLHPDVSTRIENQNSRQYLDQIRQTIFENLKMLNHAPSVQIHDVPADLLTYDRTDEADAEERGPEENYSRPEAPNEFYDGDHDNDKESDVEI
T1 sequence (Q9Y618 389-480 partner limits assumed): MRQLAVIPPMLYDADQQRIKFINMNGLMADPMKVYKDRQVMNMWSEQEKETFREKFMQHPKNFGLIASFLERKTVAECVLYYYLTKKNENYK

Row | IC50 [2] [µM] | SMILES | relative change in HDAC3 protein abundance (degradation and selectivity) [1]
1 |  | CCCNNC(=O)/C=C/c1ccc(CN(CCCCCOc2cc(-c3scnc3C)ccc2CNC(=O)[C@@H]2C[C@@H](O)CN2C(=O)[C@@H](NC(=O)C2(F)CC2)C(C)(C)C)CCc2c[nH]c3ccccc23)cc1 [Compound 3, (2S,4R)—N-(2-((5-((2-(1H-indol-3-yl)ethyl) (4-((E)-3-oxo-3-(2-propylhydrazineyl)prop-1-en-1-yl)benzyl)amino)pentyl)oxy)-4-(4-methylthiazol-5-yl)benzyl)-1-((S)-2-(1-fluorocyclopropane-1-carboxamido)-3,3-dimethylbutanoyl)-4-hydroxypyrrolidine-2-carboxamide] | significant and selective reduction in HDAC3 protein levels
2 | 6.78 | CCCNNC(=O)/C=C/c1ccc(CN(CCOCCOCCC(=O)N[C@H](C(=O)N2C[C@H](O)C[C@H]2C(=O)N[C@@H](C)c2ccc(-c3scnc3C)cc2)C(C)(C)C)CCc2c[nH]c3ccccc23)cc1 [Compound 2, (2S,4R)-1-((S)-14-(tert-butyl)-1-(1H-indol-3-yl)-12-oxo-3-(4-((E)-3-oxo-3-(2-propylhydrazineyl)prop-1-en-1-yl)benzyl)-6,9-dioxa-3,13-diazapentadecan-15-oyl)-4-hydroxy-N—((S)-1-(4-(4-methylthiazol-5-yl)phenyl)ethyl) pyrrolidine-2-carboxamide] | significant and selective reduction in HDAC3 protein levels
3 | 16.8 | CCCNNC(=O)/C=C/c1ccc(CN(CCOCCC(=O)N[C@H](C(=O)N2C[C@H](O)C[C@H]2C(=O)N[C@@H](C)c2ccc(-c3scnc3C)cc2)C(C)(C)C)CCc2c[nH]c3ccccc23)cc1 [Compound 1, (2S,4R)-1-((S)-2-(3-(2-((2-(1H-indol-3-yl)ethyl) (4-((E)-3-oxo-3-(2-propylhydrazineyl)prop-1-en-1-yl)benzyl)amino)ethoxy)propanamido)-3,3-dimethylbutanoyl)-4-hydroxy-N—((S)-1-(4-(4-methylthiazol-5-yl)phenyl)ethyl) pyrrolidine-2-carboxamide] | 
